Values of other authors in patent publication US9476892B2, “Composition and method for measuring thallium influx and efflux” (priority 2007, dated 2016).

Details: background statement, poorly soluble

For [Cl][Tl] [thallium chloride], the “concentration at which thallium chloride precipitates out of solution” value is given as ≥ 4500 µM.
